Laboratory results from paper PMC13065080, “Discovery of a potent anti-Zika virus benzamide series targeting the viral protein NS4B” (PLOS Pathogens, 2026).
Where two headings read alike, the source gives them in different places.

Experiments:
CHIKV = assay: microbe, parasite or virus in culture; format: cell-based; conditions: Vero 76; read-out: EC50-CPE CHIKV
ZIKV-RLuc = assay: microbe, parasite or virus in culture; format: cell-based, Zika virus
ZIKV NS4B = ZIKV NS4B (Zika virus, UniProt A0A142I5B9); assay: biochemical; format: binding
ZIKV PLCal [1] = assay: Virus yield (titer) reduction assay in Huh 7.5.1 cells; format: cell-based, Zika virus; conditions: 1 µM
ZIKV-RLuc NS4B V248G = format: cell-based, Zika virus
ZIKV PLCal [2] = assay: CPE-based anti-ZIKV concentration-response assay (96-well); format: cell-based, Zika virus; conditions: Zika virus
ZIKV-RLuc NS4B A245T = format: cell-based, Zika virus
ZIKV-RLuc NS4B V241L = format: cell-based, Zika virus
in vitro = conditions: African green monkey, CC50 Vero76
DENV NS4B = molecular target: T1, DENV NS4B (Dengue virus type 3, UniProt P27915); assay: 19F-NMR binding, DENV NS4B; conditions: compound 50 µM, NS4B 5 µM
T1 construct: Overlaid ^19F-NMR spectra of JNJ-1802 in absence (blue) and presence of DENV NS4B (red)

[3] = wild type ZIKV-RLuc, Vero 76, MOI 0.1, three days, read-out: EC50 ZIKV-RLuc
[4] = 72 h, Vero 76, MOI 0.05, 3-day incubation, CellTiter-Glo, read-out: EC50-CPE ZIKV-PLCal
[5] = Zika virus, Vero 76, 72 h, wild type ZIKV-RLuc, Vero 76, MOI 0.1, three days, read-out: EC50 ZIKV-RLuc
[6] = Zika virus, Fig 7, read-out: RLuc EC50

Compound: COc1ccc(C(C)NC(=O)c2ccc(C(C)(C)C)cc2)cc1 (racemic) [MWAC-3489]
- EC50 (CHIKV): > 50 µM
- EC50 (ZIKV-RLuc; [3]): 1.22 ± 0.86 µM

Compound: CC(C)(C)c1ccc(C(=O)N2C[C@H](C(=O)O)[C@@H](c3cccc(F)c3)C2)cc1 (relative stereo) [MWAC-3533]
- Kd (ZIKV NS4B): ~35 µM
- 19F-NMR signal change with ZIKV NS4B (ZIKV NS4B; compound 50 µM): shifted by the presence of ZIKV NS4B in a concentration-dependent manner
- EC50 (ZIKV-RLuc; Zika virus, Vero 76, 72 h, read-out: EC50 ZIKV-RLuc): ~16 µM

Compound: CC(C)(C)c1ccc(C(=O)N[C@@H]2C[C@H]3CC[C@@H]2C3)cc1 (relative stereo) [MWAC-3989, N-((exo)-bicyclo[2.2.1]heptan-2-yl)-4-(tert-butyl)benzamide]
- VYR: Virus Yield reduction (Log 10) (ZIKV PLCal [1]): -0.18 ± 0.14 Log 10
- EC50 (ZIKV-RLuc NS4B V248G): 4 ± 0.76 µM
- EC50 (ZIKV PLCal [2]; [4]): 0.46 ± 0.1 µM
- EC50 (ZIKV PLCal [2]; Fig 7, read-out: CPE EC50): 0.34 µM
- EC50 (ZIKV-RLuc NS4B A245T): 0.45 ± 0.05 µM
- EC50 (ZIKV-RLuc NS4B V241L): 10.6 ± 2.04 µM
- CC50 (in vitro): > 50 µM
- EC50 (ZIKV-RLuc; [5]): 0.07 ± 0.007 µM
- EC50 (ZIKV-RLuc; [6]): 0.115 µM
- EC50 (ZIKV-RLuc; [3]): 0.13 ± 0.068 µM

Compound: CC(C)(C)c1ccc(C(=O)N[C@H]2C[C@H]3CC[C@@H]2C3)cc1 (relative stereo) [MWAC-3992, N-((endo)-bicyclo[2.2.1]heptan-2-yl)-4-(tert-butyl)benzamide]
- VYR: Virus Yield reduction (Log 10) (ZIKV PLCal [1]): -1.20 ± 0.09 Log 10
- EC50 (ZIKV-RLuc NS4B V248G): 16.8 ± 2.54 µM
- EC50 (ZIKV PLCal [2]; Fig 7, read-out: CPE EC50): 0.94 µM
- EC50 (ZIKV-RLuc NS4B A245T): 2.77 ± 0.31 µM
- EC50 (ZIKV-RLuc NS4B V241L): 27.5 µM
- CC50 (in vitro): 63 µM
- EC50 (ZIKV-RLuc; [5]): 0.34 ± 0.018 µM
- EC50 (ZIKV-RLuc; [6]): 0.58 µM

Compound: COc1cc(N[C@H](C(=O)c2c[nH]c3ccc(OC(F)(F)F)cc23)c2ccc(Cl)cc2OC)cc(S(C)(=O)=O)c1 [JNJ-1802]
- 19F-NMR spectrum change with DENV NS4B (DENV NS4B): a chemical shift perturbation and significant line broadening was seen

Compound: CC(C)(C)c1ccc(C(=O)NC2CCS(=O)(=O)C2)cc1 (centres unmarked) [MWAC-3506]
- EC50 (ZIKV PLCal [2]; [4]): > 50 µM
- CC50 (in vitro): > 50 µM
- EC50 (ZIKV-RLuc; [5]): > 50 µM

Compound: CC(C)(C)c1ccc(C(=O)NC2CC3CCC2C3)cc1 (centres unmarked) [MWAC-3508]
- VYR: Virus Yield reduction (Log 10) (ZIKV PLCal [1]): -0.93 ± 0.07 Log 10
- EC50 (ZIKV-RLuc NS4B V248G): 4.37 ± 0.37 µM
- EC50 (ZIKV PLCal [2]; Fig 7, read-out: CPE EC50): 0.36 µM
- EC50 (ZIKV-RLuc NS4B A245T): 0.81 ± 0.11 µM
- EC50 (ZIKV-RLuc NS4B V241L): 13.2 ± 1.87 µM
- CC50 (in vitro): > 50 µM
- EC50 (ZIKV-RLuc; [5]): 0.11 ± 0.002 µM
- EC50 (ZIKV-RLuc; [6]): 0.15 µM

Compound: CC(C)(C)c1ccc(C(=O)NC2CCOC2)cc1 (centres unmarked) [MWAC-3509]
- EC50 (ZIKV PLCal [2]; [4]): 18 µM
- CC50 (in vitro): > 50 µM
- EC50 (ZIKV-RLuc; [5]): 6.1 µM

Compound: CC(NC(=O)c1ccc(C(C)(C)C)cc1)c1ccncc1 (centres unmarked) [MWAC-3510]
- EC50 (ZIKV PLCal [2]; [4]): > 50 µM
- CC50 (in vitro): > 48 µM
- EC50 (ZIKV-RLuc; [5]): 15 µM

Compound: CC(C)(C)c1ccc(C(=O)NC2CCN(Cc3ccccc3)CC2)cc1 [MWAC-3512]
- EC50 (ZIKV PLCal [2]; [4]): 44 µM
- CC50 (in vitro): 58 µM
- EC50 (ZIKV-RLuc; [5]): 7.4 µM
